Test results as given in patent publication EP3436445B1, “HISTONE DEMETHYLASE INHIBITORS” (Celgene Quanticel Research, Inc., priority 2016, dated 2017).

molecular target: T1, FBXL10 (Homo sapiens, UniProt Q8NHM5); assay: FBXL10 in vitro enzyme inhibition assay (AlphaScreen); format: biochemical; details: Table 5
T1 construct: purchased BPS Bioscience 50120
T1 sequence (Q8NHM5 1-650): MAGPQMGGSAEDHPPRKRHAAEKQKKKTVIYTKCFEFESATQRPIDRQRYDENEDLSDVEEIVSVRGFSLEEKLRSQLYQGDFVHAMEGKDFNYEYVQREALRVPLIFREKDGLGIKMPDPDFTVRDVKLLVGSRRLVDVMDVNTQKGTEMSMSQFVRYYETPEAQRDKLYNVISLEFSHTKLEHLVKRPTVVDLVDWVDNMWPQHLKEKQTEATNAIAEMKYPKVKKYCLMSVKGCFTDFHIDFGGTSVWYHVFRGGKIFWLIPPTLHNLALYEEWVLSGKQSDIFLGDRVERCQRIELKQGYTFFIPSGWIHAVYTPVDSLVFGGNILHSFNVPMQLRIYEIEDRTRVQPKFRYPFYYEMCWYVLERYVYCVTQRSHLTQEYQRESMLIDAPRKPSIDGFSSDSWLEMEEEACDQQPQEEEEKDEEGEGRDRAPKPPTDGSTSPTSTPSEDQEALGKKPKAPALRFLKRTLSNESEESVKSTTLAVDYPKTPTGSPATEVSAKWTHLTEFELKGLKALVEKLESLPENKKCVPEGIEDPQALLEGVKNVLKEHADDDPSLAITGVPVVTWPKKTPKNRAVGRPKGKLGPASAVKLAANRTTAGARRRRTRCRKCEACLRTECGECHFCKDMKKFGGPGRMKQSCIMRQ
From the text: This assay determines the ability of a test compound to inhibit FBXL11, FBXL10, and PHF8 demethylase activity. Baculovirus expressed FBXL11 (GenBank Accession #NM_012308, AA1-1162) was purchased from BPS Bioscience (Cat#50102). Baculovirus expressed FBXL10 (GenBank Accession #NM_032590, AA 1-650) was purchased from BPS Bioscience (Cat #50120). Baculovirus expressed PHF8 (GenBank Accession NP_055922.1) was purchased from Active Motif (Cat#31435).
The ability of test compounds to inhibit the activity of FBXL10 was determined in 384-well plate format under the following reaction conditions: 0.3 nM FBXL10, 30 nM H3K36me2-biotin labeled peptide (Anaspec cat # 64442), 0.2 µM alpha-ketoglutaric acid in assay buffer of 50 mM HEPES, pH7.3, 0.005% Brij35, 0.5 mM TCEP, 0.2 mg/ml BSA, 50 µM sodium L-ascorbate, 5 µM ammonium iron(II) sulfate. Reaction product is determined quantitatively by AlphaScreen detection after the addition of detection reagents anti-H3K36me1 antibody, AlphaScreen® Streptavidin-coated Donor beads, and AlphaScreen® Protein A Acceptor beads in 50 mM HEPES, pH7.3, 10 mM NaCl, 0.005% Brij35, 5 mM EDTA, 2 mg/ml BSA to final 10 µg/ml beads.
The assay reaction was initiated by the following: 3 µl of the mixture of 90 nM H3K36me2-biotin labeled peptide and 0.6 µM alpha-ketoglutaric acid with 3 µl of 11-point serial diluted inhibitor in 3% DMSO are added to each well of 384 well Proxiplate (Perkin Elmer), followed by the addition of 3 µl of 0.9 nM FBXL10 to initiate the reaction. The reaction mixture is incubated at room temperature for 1 hour, and terminated by the addition of 3 µl of appropriate dilution of anti H3K36me1 antibody in 50 mM HEPES, pH7.3, 10 mM NaCl, 0.005% Brij35, 5 mM EDTA, 2 mg/ml BSA. Plates will then incubated at room temperature for 40 minutes, followed by addition of 3 µl of 50 µg/ml AlphaScreen® Streptavidin-coated Donor beads and AlphaScreen® Protein A Acceptor beads in 50 mM HEPES, pH7.3, 10 mM NaCl, 0.005% Brij35, 5 mM EDTA, 2 mg/ml BSA. Plates will then be read by EnVision Multilabel Reader in AlphaScreen mode after minimum 2 hour incubation at room temperature. The AlphaScreen signal for each well is used to determine inhibition constant (IC50).

| SMILES | IC50 |
| --- | --- |
| Fc1ccc2c(c1)CCCC2Cn1cnc(-c2cc(-c3nn[nH]c3C(F)(F)F)ccn2)c1 (stereo not drawn) [Example 100, 2-{1-[(6-fluoro-1,2,3,4-tetrahydronaphthalen-1-yl)methyl]-1H-imidazol-4-yl}-4-[5-(trifluoromethyl)-1H-1,2,3-triazol-4-yl]pyridine] | 100 to 1000 nM |
| COc1ccc2c(c1)C(Cn1cnc(-c3cc(-c4nn[nH]c4C(F)(F)F)ccn3)c1)CCC2 (stereo not drawn) [Example 106, 2-{1-[(7-methoxy-1,2,3,4-tetrahydronaphthalen-1-yl)methyl]-1H-imidazol-4-yl}-4-[5-(trifluoromethyl)-1H-1,2,3-triazol-4-yl]pyridine] | 100 to 1000 nM |
| FC(F)(F)COc1ccccc1Cn1cnc(-c2cc(-c3nn[nH]c3C(F)(F)F)ccn2)c1 [Example 76, 2-(1-{[2-(2,2,2-trifluoroethoxy)phenyl]methyl}-1H-imidazol-4-yl)-4-[5-(trifluoromethyl)-1H-1,2,3-triazol-4-yl]pyridine] | 100 to 1000 nM |
| CCOc1ccccc1CCn1cnc(-c2cc(-c3nn[nH]c3C(F)(F)F)ccn2)c1 [Example 59] | 100 to 1000 nM |
| Fc1cccc(Cl)c1CCn1cnc(-c2cc(-c3nn[nH]c3C(F)(F)F)ccn2)c1 [Example 80, 2-{1-[2-(2-chloro-6-fluorophenyl)ethyl]-1H-imidazol-4-yl}-4-[5-(trifluoromethyl)-1H-1,2,3-triazol-4-yl]pyridine] | 100 to 1000 nM |
| FC(F)(F)c1[nH]nnc1-c1ccnc(-c2cn(Cc3ccccc3)cn2)c1 [Example 72, 2-(1-benzyl-1H-imidazol-4-yl)-4-[5-(trifluoromethyl)-1H-1,2,3-triazol-4-yl]pyridine] | ≤ 100 nM |
| FC(F)(F)c1[nH]nnc1-c1ccnc(-c2cn(CCc3ccccc3Cl)cn2)c1 [Example 57] | ≤ 100 nM |
| FC(F)(F)c1[nH]nnc1-c1ccnc(-c2cn(CC3CCOc4ccccc43)cn2)c1 (stereo not drawn) [Example 98, 2-{1-[(3,4-dihydro-2H-1-benzopyran-4-yl)methyl]-1H-imidazol-4-yl}-4-[5-(trifluoromethyl)-1H-1,2,3-triazol-4-yl]pyridine] | ≤ 100 nM |
| CCC(c1ccccc1)n1cnc(-c2cc(-c3nn[nH]c3C(F)(F)F)ccn2)c1 (stereo not drawn) [Example 74, 2-[1-(1-phenylpropyl)-1H-imidazol-4-yl]-4-[5-(trifluoromethyl)-1H-1,2,3-triazol-4-yl]pyridine] | ≤ 100 nM |
| Cc1ccc2c(c1)CCCC2Cn1cnc(-c2cc(-c3nn[nH]c3C(F)(F)F)ccn2)c1 (stereo not drawn) [Example 102, 2-{1-[(6-methyl-1,2,3,4-tetrahydronaphthalen-1-yl)methyl]-1H-imidazol-4-yl}-4-[5-(trifluoromethyl)-1H-1,2,3-triazol-4-yl]pyridine] | 1000 to 10000 nM |
| Cn1cnc(-c2cc(-c3nn[nH]c3C(F)(F)F)ccn2)c1-c1ccc(F)cc1 [Example 97, 2-[5-(4-fluorophenyl)-1-methyl-1H-imidazol-4-yl]-4-[5-(trifluoromethyl)-1H-1,2,3-triazol-4-yl]pyridine] | ≤ 100 nM |
| COc1ccc2c(c1)CCCC2Cn1cnc(-c2cc(-c3nn[nH]c3C(F)(F)F)ccn2)c1 (stereo not drawn) [Example 105, 2-{1-[(6-methoxy-1,2,3,4-tetrahydronaphthalen-1-yl)methyl]-1H-imidazol-4-yl}-4-[5-(trifluoromethyl)-1H-1,2,3-triazol-4-yl]pyridine] | 100 to 1000 nM |
| CC(C)C(c1ccccc1)n1cnc(-c2cc(-c3nn[nH]c3C(F)(F)F)ccn2)c1 (stereo not drawn) [Example 75, 2-[1-(2-methyl-1-phenylpropyl)-1H-imidazol-4-yl]-4-[5-(trifluoromethyl)-1H-1,2,3-triazol-4-yl]pyridine] | 100 to 1000 nM |
| FC(F)(F)c1[nH]nnc1-c1ccnc(-c2cn(CC3CCCc4ccccc43)cn2)c1 (stereo not drawn) [Example 58, 2-{1-[(1,2,3,4-tetrahydronaphthalen-1-yl)methyl]-1H-imidazol-4-yl}-4-[5-(trifluoromethyl)-1H-1,2,3-triazol-4-yl]pyridine] | ≤ 100 nM |
| Fc1cc(F)c(CCn2cnc(-c3cc(-c4nn[nH]c4C(F)(F)F)ccn3)c2)c(F)c1 [Example 82, 4-[5-(trifluoromethyl)-1H-1,2,3-triazol-4-yl]-2-{1-[2-(2,4,6-trifluorophenyl)ethyl]-1H-imidazol-4-yl}pyridine] | ≤ 100 nM |
| Fc1ccc(CCn2cnc(-c3cc(-c4nn[nH]c4C(F)(F)F)ccn3)c2)cc1 [Example 77] | ≤ 100 nM |

Next, values leading:

| IC50 | SMILES |
| --- | --- |
| ≤ 100 nM | FC(F)(F)c1[nH]nnc1-c1ccnc(-c2cn(CCc3ccc(Cl)cc3)cn2)c1 [Example 92, 2-{1-[2-(4-chlorophenyl)ethyl]-1H-imidazol-4-yl}-4-[5-(trifluoromethyl)-1H-1,2,3-triazol-4-yl]pyridine] |
| ≤ 100 nM | Fc1ccc2c(c1)C(n1cnc(-c3cc(-c4nn[nH]c4C(F)(F)F)ccn3)c1)CC2 (stereo not drawn) [Example 85, 2-[1-(6-fluoro-2,3-dihydro-1H-inden-1-yl)-1H-imidazol-4-yl]-4-[5-(trifluoromethyl)-1H-1,2,3-triazol-4-yl]pyridine] |
| ≤ 100 nM | Fc1cccc(CCn2cnc(-c3cc(-c4nn[nH]c4C(F)(F)F)ccn3)c2)c1F [Example 79, 2-{1-[2-(2,3-difluorophenyl)ethyl]-1H-imidazol-4-yl}-4-[5-(trifluoromethyl)-1H-1,2,3-triazol-4-yl]pyridine] |
| ≤ 100 nM | Cc1ccccc1Cn1cnc(-c2cc(-c3nn[nH]c3C(F)(F)F)ccn2)c1 [Example 66, 2-{1-[(2-methylphenyl)methyl]-1H-imidazol-4-yl}-4-[5-(trifluoromethyl)-1H-1,2,3-triazol-4-yl]pyridine] |
| ≤ 100 nM | Fc1cccc(F)c1CCn1cnc(-c2cc(-c3nn[nH]c3C(F)(F)F)ccn2)c1 [Example 87, 2-{1-[2-(2,6-difluorophenyl)ethyl]-1H-imidazol-4-yl}-4-[5-(trifluoromethyl)-1H-1,2,3-triazol-4-yl]pyridine] |
| ≤ 100 nM | FC(F)(F)c1[nH]nnc1-c1ccnc(-c2cn(Cc3ccc(Cl)cc3)cn2)c1 [Example 63, 2-{1-[(4-chlorophenyl)methyl]-1H-imidazol-4-yl}-4-[5-(trifluoromethyl)-1H-1,2,3-triazol-4-yl]pyridine] |
| ≤ 100 nM | Fc1cc(F)c(CCn2cnc(-c3cc(-c4nn[nH]c4C(F)(F)F)ccn3)c2)cc1F [Example 81, 4-[5-(trifluoromethyl)-1H-1,2,3-triazol-4-yl]-2-{1-[2-(2,4,5-trifluorophenyl)ethyl]-1H-imidazol-4-yl}pyridine] |
| ≤ 100 nM | Cc1ccc(Cn2cnc(-c3cc(-c4nn[nH]c4C(F)(F)F)ccn3)c2)cc1 [Example 65, 2-{1-[(4-methylphenyl)methyl]-1H-imidazol-4-yl}-4-[5-(trifluoromethyl)-1H-1,2,3-triazol-4-yl]pyridine] |
